From patent US12599582B2, “Pyrrole compounds” (ALIGOS THERAPEUTICS, INC., priority 2019, dated 2026)

Each molecule was assayed on HBV (assay: HBV-DNA Antiviral Assay Using HepG2.2.15 Cells (extracellular HBV DNA by qPCR)). Details: Hepatitis B virus; HBV DNA inhibition, HepG2.2.15 cells, extracellular HBV DNA by qPCR; read-out: EC50.
Format: cell-based, hepatitis B virus (HBV)
Summary of the method: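 HepG2.2.15 cells were treated on day 1 with 8 concentrations (4-fold dilutions, duplicate; 0.5% DMSO), with compound-containing medium refreshed on day 4, at 37 °C. On day 7, supernatant HBV DNA was measured by qPCR against a plasmid standard curve, with inhibition normalised between DMSO and ETV controls. EC50/EC90 and CC50 (CellTiter-Glo ATP) came from variable-slope fits.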

| SMILES | EC50 [nM] |
| --- | --- |
| Cc1c(C(=O)C(=O)NC2(c3ccncc3)CC(F)(F)C2)c(C)n(C)c1C(=O)Nc1ccc(F)c(C(F)(F)F)c1 [Compound 150, 4-[2-[[3,3-difluoro-1-(4-pyridyl)cyclobutyl]amino]-2-oxo-acetyl]-N-[4-fluoro-3-(trifluoromethyl)phenyl]-1,3,5-trimethyl-pyrrole-2-carboxamide] | < 1 |
| Cc1c(C(=O)C(=O)NC2(c3cn[nH]c3)COC2)c(C)n(C)c1C(=O)Nc1ccc(F)c(C#N)c1 [Compound 151, N-(3-cyano-4-fluoro-phenyl)-1,3,5-trimethyl-4-[2-oxo-2-[[3-(1H-pyrazol-4-yl)oxetan-3-yl]amino]acetyl]pyrrole-2-carboxamide] | 1 to 10 |
| Cc1c(C(=O)C(=O)NC(C)(C)c2ccncn2)c(C)n(C)c1C(=O)Nc1ccc(F)c(C#N)c1 [Compound 152, N-(3-cyano-4-fluoro-phenyl)-1,3,5-trimethyl-4-[2-[(1-methyl-1-pyrimidin-4-yl-ethyl)amino]-2-oxo-acetyl]pyrrole-2-carboxamide] | 1 to 10 |
| Cc1c(C(=O)C(=O)NC(C)(C)c2ccncn2)c(C)n(C)c1C(=O)Nc1ccc(F)c(C(F)(F)F)c1 [Compound 153, N-[4-fluoro-3-(trifluoromethyl)phenyl]-1,3,5-trimethyl-4-[2-[(1-methyl-1-pyrimidin-4-yl-ethyl)amino]-2-oxo-acetyl]pyrrole-2-carboxamide] | < 1 |
| Cc1c(C(=O)C(=O)NC2(c3ncc[nH]3)COC2)c(C)n(C)c1C(=O)Nc1ccc(F)c(C(F)(F)F)c1 [Compound 155, N-[4-fluoro-3-(trifluoromethyl)phenyl]-4-[2-[[3-(1H-imidazol-2-yl)oxetan-3-yl]amino]-2-oxo-acetyl]-1,3,5-trimethyl-pyrrole-2-carboxamide] | 1 to 10 |
| Cc1c(C(=O)C(=O)NC2(c3c[nH]cn3)COC2)c(C)n(C)c1C(=O)Nc1ccc(F)c(C(F)(F)F)c1 [Compound 156, N-[4-fluoro-3-(trifluoromethyl)phenyl]-4-[2-[[3-(1H-imidazol-4-yl)oxetan-3-yl]amino]-2-oxo-acetyl]-1,3,5-trimethyl-pyrrole-2-carboxamide] | < 1 |
| Cc1c(C(=O)C(=O)NC2(c3c[nH]cn3)COC2)c(C)n(C)c1C(=O)Nc1ccc(F)c(C#N)c1 [Compound 157, N-(3-cyano-4-fluoro-phenyl)-4-[2-[[3-(1H-imidazol-4-yl)oxetan-3-yl]amino]-2-oxo-acetyl]-1,3,5-trimethyl-pyrrole-2-carboxamide] | 1 to 10 |
| Cc1c(C(=O)C(=O)NC2(c3cn[nH]c3)COC2)c(C)n(C)c1C(=O)Nc1ccc(F)c(C(F)(F)F)c1 [Compound 158, N-[4-fluoro-3-(trifluoromethyl)phenyl]-1,3,5-trimethyl-4-[2-oxo-2-[[3-(1H-pyrazol-4-yl)oxetan-3-yl]amino]acetyl]pyrrole-2-carboxamide] | < 1 |
| Cc1c(C(=O)C(=O)NC(C)(C)c2ccc[nH]c2=O)c(C)n(C)c1C(=O)Nc1ccc(F)c(C(F)(F)F)c1 [Compound 159, N-[4-fluoro-3-(trifluoromethyl)phenyl]-1,3,5-trimethyl-4-[2-[[1-methyl-1-(2-oxo-1H-pyridin-3-yl)ethyl]amino]-2-oxo-acetyl]pyrrole-2-carboxamide] | 1 to 10 |
| Cc1c(C(=O)C(=O)NC(C)(C)c2ccc3[nH]cnc3c2)c(C)n(C)c1C(=O)Nc1ccc(F)c(C#N)c1 [Compound 160, 4-[2-[[1-(1H-benzimidazol-5-yl)-1-methyl-ethyl]amino]-2-oxo-acetyl]-N-(3-cyano-4-fluoro-phenyl)-1,3,5-trimethyl-pyrrole-2-carboxamide] | 1 to 10 |
| Cc1c(C(=O)C(=O)NC(C)(C)c2ccc[nH]c2=O)c(C)n(C)c1C(=O)Nc1ccc(F)c(C#N)c1 [Compound 161, N-(3-cyano-4-fluoro-phenyl)-1,3,5-trimethyl-4-[2-[[1-methyl-1-(2-oxo-1H-pyridin-3-yl)ethyl]amino]-2-oxo-acetyl]pyrrole-2-carboxamide] | 1 to 10 |
| Cc1cc(NC(=O)c2c(C)c(C(=O)C(=O)NC(C)(C)c3ccc4[nH]cnc4c3)c(C)n2C)ccc1F [Compound 162, 4-[2-[[1-(1H-benzimidazol-5-yl)-1-methyl-ethyl]amino]-2-oxo-acetyl]-N-(4-fluoro-3-methyl-phenyl)-1,3,5-trimethyl-pyrrole-2-carboxamide] | 1 to 10 |
